Assay results published in patent US12263144B2, “Methods of treating IgA nephropathy with thiol-containing molecules” (Accubit LLC—Biotechnology, priority 2020, dated 2025).

What was measured:
rat poly-rIgA = assay: Nonreducing SDS-PAGE analysis of rat poly-rIgA after pretreatment; format: biochemical; conditions: cysteamine 0 to 10 mM; TCEP 10 mM; untreated poly-IgA >250 kDa
Method: (§1) Proteins in sample buffer (Bio-Rad Laboratories, Hercules, CA, USA) with or without TCEP (for reducing or nonreducing condition, respectively) were resolved by 4-12% SDS-PAGE (Bio-Rad Laboratories). IgA bands were subsequently visualized either by staining with GelCode Blue (Thermo Fisher Scientific), or by Western blotting on PVDF membrane. For Western blotting, 5% non-fat milk was used in blocking for one hour at room temperature. The membrane was then incubated with mouse anti-Histag antibody (Thermo Scientific), or HRP-conjugated goat anti-rat IgA α-chain antibody (Cat. ab97185, Abcam, UK), or goat anti-human IgA HRP antibody (Cat: 2050-05, SouthernBiotech) for detecting rat or human IgA (Fc), respectively. The membrane was developed using the Clarity™ ECL substrate (Bio-Rad Laboratories, CA, USA).
To further ascertain the mechanism-of-action of cysteamine in targeting disulfides, nonreducing SDS-PAGE analysis was performed of rat poly-rIgA (FIG. 5, part D). The samples were pretreated with 0 to 10 mM cysteamine, or 10 mM TCEP as positive control. As expected, poly-IgA appeared as >250 kDa bands on SDS-PAGE. Dose-dependent response of poly-rIgA to cysteamine was evident, with majority of the protein running at ˜64 kDa of disaggregated monomers.

[1] = system: glomerular human IgA1 deposition; assay: Passive mouse model of IgA deposition (human IgA1 injection), glomerular immunofluorescence and blood IgA1; format: in vivo, BALB/c mice; conditions: mice, 200 mg/kg s.c. 2 h before human IgA1 injection, n=6; buffer 2293±163
Method: To establish the passive rat model, 5 mg/kg.BW recombinant rat rIgA, which contained a fraction of poly-rIgA, were i.v. injected daily to six 14-weeks old male Wistar rats (Charles River Labs, USA) for 5 consecutive days. Every day, three rats in each group had received a subcutaneous dose of either 250 mg/kg cysteamine, or buffer control, two hours before the rIgA injection. Twenty-four hours after the last injection of rIgA, kidneys were collected for immunofluorescence detection of deposits with goat-anti-rat IgA antibody (Cat: STAR111, Biorad laboratory). Similarly, a passive IgA nephrophathy mouse model was established by injecting 35 mg/kg purified human IgA1 in BALB/c mice (Charles River Labs). Two hours before IgA1 injection, six mice in each experimental group had each received a pretreatment dose of either 200 mg/kg cysteamine, or PBS, via subcutaneous injection. Two and a half hours after human IgA1 injection, kidneys were harvested, and specimens were stained with FITC-conjugated anti-human IgA antibody (Cat: 2050-02, SouthernBiotech). Plasma samples were collected at 0.5 h, 1 h and 2 h after IgA1 injection of all mice.
Frozen tissues were sectioned at 4 μm for IgA detection using goat anti-rat IgA (Cat: STAR111, Bio-Rad Laboratories) at 1:100, or anti-human IgA antibody (Cat: 2050-02, […]) at 1:80 dilution. […]

[2] = system: natural IgA1 assembly (two heavy chains and two light chains connected via disulfide bonds); assay: Ex vivo study: integrity of natural IgA assembly under thiol/reducing agents; format: biochemical
Method: The overall complex size of IgA aggregates was determined either by size-exclusion chromatography (SEC: Superdex 200 Increase 10/300 by GL Cytiva), or by SDS-PAGE. For evaluating the involvement of intermolecular disulfide connectivity in IgA complexes, IgA samples were treated with either reducing agents, such as DTT, TCEP or reduced glutathione (Sigma), or interventional drugs, such as cysteamine (Sigma), WR-1065 (Sigma) and N-Acetyl-L-cysteine (VWR Chemicals) in phosphate-buffered saline (PBS) pH7.4. Before running on SEC, samples were treated with the drugs at indicated concentrations at 37° C. for one hour.
as §1

For `NCCS` [cysteamine], the “molecular weight of protein band after pretreatment (nonreducing SDS-PAGE)” value (rat poly-rIgA) was roughly 64 kDa, the “glomerular IgA1 intensity (Mean±SEM)” value [1] was 870±193 and the “disruption of natural IgA assembly / normal pairing of IgA heavy chains” value [2] was “did not cause unwanted disruption of natural IgA1 assembly”.
